# In patent publication US20240307351A1, “AGENT FOR ANTI-AGING OR FOR CELLULAR REJUVENATION” (TOHOKU UNIVERSITY, priority 2022, published 2024):
# Columns and labels:
# SIRTI protein = test: Amount of SIRT1 protein in RH30 cells by Western blotting; format: cell-based, human; conditions: 30 μM, 24 hours, compared with Control group (DMSO)
# Procedure: RH30 cells (human rhabdomyosarcoma cell line; gli gene expression+, N-myc gene expression+) at 1×10^6 cell/dish were seeded and cultured in a dish containing 10 mL of a culture solution (low-glucose-containing DMEM medium (glucose concentration of 1.0 g/dL) to which 10 wt. % of FBS was added). One day later, Compound #5 was added to have a concentration of 30 μM, and the mixture was cultured for 24 hours ([Compound #5 addition group]). Compound #9, Compound #13, Compound #21, Compound #30, or Compound #35 as the present compound was added in place of Compound #5, and the mixture was cultured in the same manner, respectively, as [Compound #9 addition group], [Compound #13 addition group], [Compound #21 addition group], [Compound #30 addition group], and […].
# On the other hand, as a control, DMSO (dimethyl sulfoxide) was added to have a concentration of 0.2 wt. %, and the mixture was cultured for 24 hours ([Control group]).
# After completion of culture, the cells were recovered, disrupted by a typical method, and the amount of each of the proteins (SIRTI proteins, etc.) in the cells was detected by Western blotting. Further, the results of quantification of each band in the detection results of the Western blotting in FIG. 6 through normalization with the band of β-actin as a loading control are shown in FIG. 7.
# [1] = Liver function markers in blood of C57BL6 mice; format: in vivo, mouse; conditions: C57BL6 mice (8 weeks old), oral, 50 or 150 mg/kg/day, 7 days, vs DMSO corn oil
# Procedure: Compound #4 of DMSO corn oil was orally administered to C57BL6 mice (8 weeks old) at a dose of 50 mg/kg/day per kg of mouse weight for 7 days ([Group L]).
# In addition, Compound #4 of DMSO corn oil was orally administered to C57BL6 mice (8 weeks old) at a dose of 150 mg/kg/day per kg of mouse weight for 7 days ([Group H]).
# Further, DMSO corn oil was orally administered to C57BL6 mice (8 weeks old) for 7 days ([Control group]).
Compound,amount of SIRTI protein in cells (SIRTI protein),GOT in blood [1],GPT in blood [1]
CC(=O)N1CCC(CC(C(=O)O)c2c[nH]c3ccccc23)CC1 (centres unmarked) [Compound #9],increased,–,–
O=C(CC(C(=O)O)c1c[nH]c2ccccc12)c1ccc(F)cc1 (centres unmarked) [Compound #4],–,decreased,decreased
CC(C)(C)OC(=O)NCCCCCCC(C)(C(=O)O)c1c[nH]c2ccccc12 (centres unmarked) [Compound #13],increased,–,–
CCCCCCn1cc(CC(=O)O)c2ccccc21 [Compound #30],increased,–,–
